According to patent US20120165384A1, “INHIBITION OF HISTONE ACETYLTRANSFERASES BY CTK7A AND METHODS THEREOF” (JAWAHARLAL NEHRU CENTRE FOR ADVANCED SCIENTIFIC RESEARCH, priority 2009, published 2012):

Target: p300 (Homo sapiens, UniProt Q09472)
Assay: HAT assay with recombinant p300
Type: biochemical
Parameters: hexahistidine; made in house; host or cells: baculovirus-infected Sf21 cells
Experimental: Recombinant baculovirus expressing full-length FLAG-tagged CARM1,CBP and PCAF were purified by immunoaffinity chromatography using M2-agarose beads followed by elution with FLAG peptide. Baculovirus-expressed full-length hexahistidine-tagged p300, and G9a were purified using Ni-NTA affinity chromatography as described previously^30.
HAT gel fluorography/autoradiography assays were performed as previously reported^30. Kinetic analysis of p300 HAT inhibition was performed as reported earlier^31 in the presence of (0, 30 and 50 μM) CTK7A. The obtained values were plotted as a lineweaver burk plot using Graphpad Prism software. For p300 Autoacetylation assay, reactions of p300 full length (80 ng) were carried out in HAT assay buffer at 30° C. for 10 minutes with or without the protein (NPM1) followed by addition of 1 μl of 4.7 Ci/mmol [^3H] acetyl CoA (NEN-PerkinElmer) and were further incubated for another 10 min in a 30 μl reaction. GAPDH was used as positive control. The radio-labeled acetylated p300 were processed by fluorography followed by autoradiography.

p300, sequence (Q09472 whole entry, species assumed): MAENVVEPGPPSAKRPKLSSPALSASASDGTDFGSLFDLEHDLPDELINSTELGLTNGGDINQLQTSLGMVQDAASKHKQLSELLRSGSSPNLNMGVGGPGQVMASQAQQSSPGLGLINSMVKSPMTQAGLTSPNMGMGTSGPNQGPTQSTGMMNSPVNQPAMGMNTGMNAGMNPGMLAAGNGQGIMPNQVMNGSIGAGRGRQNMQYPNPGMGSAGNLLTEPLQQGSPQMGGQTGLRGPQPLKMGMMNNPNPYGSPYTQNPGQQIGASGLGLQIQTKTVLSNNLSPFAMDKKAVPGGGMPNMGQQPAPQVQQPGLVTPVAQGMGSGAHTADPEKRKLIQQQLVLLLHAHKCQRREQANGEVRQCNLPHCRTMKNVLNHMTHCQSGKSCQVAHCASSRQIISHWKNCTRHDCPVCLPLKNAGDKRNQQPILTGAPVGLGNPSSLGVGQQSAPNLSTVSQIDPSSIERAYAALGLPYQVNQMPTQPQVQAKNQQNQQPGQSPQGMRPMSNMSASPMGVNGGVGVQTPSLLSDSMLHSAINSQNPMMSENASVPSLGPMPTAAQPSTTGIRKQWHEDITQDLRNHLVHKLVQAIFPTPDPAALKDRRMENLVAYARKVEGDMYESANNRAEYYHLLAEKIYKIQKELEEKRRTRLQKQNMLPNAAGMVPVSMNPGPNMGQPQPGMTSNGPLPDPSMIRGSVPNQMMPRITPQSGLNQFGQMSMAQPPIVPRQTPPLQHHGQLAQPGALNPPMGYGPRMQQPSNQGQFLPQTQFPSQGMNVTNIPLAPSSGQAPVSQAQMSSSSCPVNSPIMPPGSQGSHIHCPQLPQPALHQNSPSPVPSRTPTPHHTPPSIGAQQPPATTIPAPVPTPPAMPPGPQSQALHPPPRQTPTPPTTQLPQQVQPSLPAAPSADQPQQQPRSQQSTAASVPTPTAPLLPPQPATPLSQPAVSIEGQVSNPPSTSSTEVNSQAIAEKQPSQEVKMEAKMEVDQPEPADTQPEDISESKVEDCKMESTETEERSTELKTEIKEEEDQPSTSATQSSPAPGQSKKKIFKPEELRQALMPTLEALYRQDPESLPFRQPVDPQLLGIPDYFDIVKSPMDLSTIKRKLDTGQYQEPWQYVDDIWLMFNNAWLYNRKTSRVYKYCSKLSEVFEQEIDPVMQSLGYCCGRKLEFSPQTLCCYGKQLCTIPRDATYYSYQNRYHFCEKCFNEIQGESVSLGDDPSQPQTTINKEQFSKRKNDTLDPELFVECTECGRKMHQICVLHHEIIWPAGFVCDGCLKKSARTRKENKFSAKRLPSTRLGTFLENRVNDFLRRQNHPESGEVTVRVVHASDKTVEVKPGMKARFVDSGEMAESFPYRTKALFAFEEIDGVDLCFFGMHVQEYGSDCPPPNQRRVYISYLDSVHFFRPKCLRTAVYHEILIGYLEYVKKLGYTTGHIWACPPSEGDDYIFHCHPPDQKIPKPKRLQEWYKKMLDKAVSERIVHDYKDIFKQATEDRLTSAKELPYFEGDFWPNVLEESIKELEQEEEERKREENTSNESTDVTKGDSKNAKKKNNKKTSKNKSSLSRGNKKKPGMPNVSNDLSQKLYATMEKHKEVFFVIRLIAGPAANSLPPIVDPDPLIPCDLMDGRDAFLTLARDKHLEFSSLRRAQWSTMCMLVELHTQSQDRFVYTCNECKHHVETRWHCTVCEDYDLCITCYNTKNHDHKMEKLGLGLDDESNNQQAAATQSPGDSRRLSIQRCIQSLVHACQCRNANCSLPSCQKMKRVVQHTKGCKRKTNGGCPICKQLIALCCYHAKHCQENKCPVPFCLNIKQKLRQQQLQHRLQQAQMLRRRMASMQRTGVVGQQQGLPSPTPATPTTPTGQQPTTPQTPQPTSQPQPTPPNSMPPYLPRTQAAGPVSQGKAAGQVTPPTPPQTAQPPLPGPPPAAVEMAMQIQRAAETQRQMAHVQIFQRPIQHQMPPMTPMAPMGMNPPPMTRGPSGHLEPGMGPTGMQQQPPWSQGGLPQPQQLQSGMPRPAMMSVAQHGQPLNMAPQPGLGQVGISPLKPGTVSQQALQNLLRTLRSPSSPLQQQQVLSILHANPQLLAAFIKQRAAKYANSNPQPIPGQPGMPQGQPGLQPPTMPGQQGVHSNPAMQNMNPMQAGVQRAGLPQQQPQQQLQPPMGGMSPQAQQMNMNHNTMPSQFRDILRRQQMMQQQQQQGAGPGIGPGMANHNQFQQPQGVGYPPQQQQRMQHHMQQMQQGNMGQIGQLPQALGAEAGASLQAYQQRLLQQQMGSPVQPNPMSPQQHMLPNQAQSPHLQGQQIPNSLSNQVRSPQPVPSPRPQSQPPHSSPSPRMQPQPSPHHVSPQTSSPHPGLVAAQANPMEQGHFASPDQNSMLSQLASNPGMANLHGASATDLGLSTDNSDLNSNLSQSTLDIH

COc1cc([O-])cc(C=CC2=NN(c3ccc(C(=O)[O-])cc3)C(C=Cc3cc([O-])cc(OC)c3)C2)c1.[Na+].[Na+].[Na+] (centres unmarked) [CTK7A, Sodium 4-(3,5-bis(3-methoxy-5-oxidostyryl)-4,5dihydro-1H-pyrazole-1-yl)benzoate]
inhibition of p300 HAT activity: inhibit
type of inhibition pattern for p300 (both substrates, acetyl-coA and core histone, 0, 30 and 50 μM): non-competitive
